Results taken from patent publication US11053253B2, “Macrocyclic compounds for treatment of medical disorders” (Achillion Pharmaceuticals, Inc., priority 2017, dated 2021).

Biological target: Human Factor D (Homo sapiens (Human), UniProt P00746)
Experiment: Human Factor D Assay
Assay type: biochemical
Conditions: Human Factor D 80 nM, substrate Z-L-Lys-SBzl, DTNB, A405; read-out: IC50 (Stars)
Outline: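 Serum-purified enzyme (80 nM final) was preincubated with compound 5 min at room temperature in 50 mM Tris, 1M NaCl, pH 7.5. Z-L-Lys-SBzl and DTNB ([…] each, final) were added and A405 followed every 30 s for 30 min; IC50 from nonlinear regression of reaction rates.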

Human Factor D, sequence (P00746 26-253): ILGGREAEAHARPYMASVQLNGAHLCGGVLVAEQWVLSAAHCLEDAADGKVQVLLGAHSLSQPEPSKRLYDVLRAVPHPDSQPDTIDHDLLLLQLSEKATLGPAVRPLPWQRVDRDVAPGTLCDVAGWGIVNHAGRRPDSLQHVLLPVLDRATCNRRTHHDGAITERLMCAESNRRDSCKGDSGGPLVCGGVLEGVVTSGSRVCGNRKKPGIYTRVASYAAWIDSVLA

Row | Structure (SMILES) | IC50 [nM]
1 | CC(=O)c1nn(CC(=O)N2[C@H]3C[C@@]4(COCC=CCOCc5ccc(Br)nc5NC3=O)C[C@@H]24)c2ccccc12 [Compound T-10, (41R,43S,45S)-42-(2-(3-acetyl-1H-indazol-1-yl)acetyl)-16-bromo-6,11-dioxa-42,2-diaza-1(2,3)-pyridina-4(3,5)-bicyclo[3.1.0]hexanacyclododecaphan-8-en-3-one] | < 1000
2 | CC(=O)c1nn2c3c(cc(-c4cnc(C)nc4)cc13)CCCCCC(C)(C)C(=O)N(C)C[C@@]13C[C@@H](C(=O)Nc4cccc(C(F)(F)F)n4)N(C(=O)C2)[C@@H]1C3 [Compound T-186] | < 1000
3 | CC(=O)c1nn(CC(=O)N2C[C@@]3(F)COCCCCOCc4ccc(Br)nc4NC(=O)[C@@H]2C3)c2cnc(-c3cnc(C)nc3)cc12 [Compound T-161] | < 1000
4 | CC(=O)c1nn2c3c(cc(-c4cnc(C)nc4)cc13)CCCCCCC(=O)NC[C@@]13C[C@@H](C(=O)NCC(F)=C(C)C)N(C(=O)C2)[C@@H]1C3 [Compound T-198] | < 1000
5 | CC(=O)c1nn2c3c(cc(-c4cnc(C)nc4)cc13)CCCCCCC(=O)NC[C@@]13C[C@@H](C(=O)Nc4ccc(F)c(Br)n4)N(C(=O)C2)[C@@H]1C3 [Compound T-213] | < 1000
6 | CC(=O)c1nn2c3c(cc(-c4cnc(C)nc4)cc13)CCCCCCC(=O)NC[C@@]13C[C@@H](C(=O)Nc4cccc(OC(F)(F)F)c4F)N(C(=O)C2)[C@@H]1C3 [Compound T-223] | < 1000
7 | CC(=O)c1nn2c3c(cc(-c4cnc(C)nc4)cc13)CC=CCCCC(=O)NC[C@@]13C[C@@H](C(=O)NCc4cccc(Cl)c4F)N(C(=O)C2)[C@@H]1C3 [Compound T-82] | < 1000
8 | CC(=O)c1nn(CC(=O)N2[C@H]3C[C@@]4(CNC(=O)C(C)(C)CCCCc5ccc(Br)nc5NC3=O)C[C@@H]24)c2cnc(-c3cnc(C)nc3)cc12 [Compound T-181] | < 1000
9 | CC(=O)c1nn(CC(=O)N2[C@H]3C[C@@]4(CCCCCCCCc5ccc(Br)nc5NC3=O)C[C@@H]24)c2cnc(-c3cnc(C)nc3)cc12 [Compound T-46] | < 1000
10 | CC(=O)c1nn2c3c(cc(-c4cnc(C)nc4)cc13)C=CCCCCC(=O)NC[C@@]13C[C@@H](C(=O)Nc4nc(C(F)(F)F)ccc4C)N(C(=O)C2)[C@@H]1C3 [Compound T-51] | < 1000
11 | CC(=O)c1nn(CC(=O)N2[C@H]3C[C@@]4(COCC=CCOCc5ccc(Br)nc5NC3=O)C[C@@H]24)c2c(C)cccc12 [Compound T-12, (41R,43S,45S)-42-(2-(3-acetyl-7-methyl-1H-indazol-1-yl)acetyl)-16-bromo-6,11-dioxa-42,2-diaza-1(2,3)-pyridina-4(3,5)-bicyclo[3.1.0]hexanacyclododecaphan-8-en-3-one] | < 1000
12 | Cc1ncc(-c2cc3c(C(N)=O)nn4c3c(n2)CCCCCCOC[C@@]23C[C@@H](C(=O)Nc5nc(C(F)(F)F)ccc5C)N(C(=O)C4)[C@@H]2C3)cn1 [Compound T-156] | < 1000
13 | Cc1ncc(-c2cc3c4c(c2)c(C(N)=O)nn4CC(=O)N2[C@H](C(=O)Nc4nc(C(F)(F)F)ccc4C)C[C@@]4(COCCCCCCC3)C[C@@H]24)cn1 [Compound T-187] | < 1000
14 | CC(=O)c1nn2c3c(cc(-c4cnc(C)nc4)cc13)COCC=CC(F)(F)C(=O)NC[C@@]13C[C@@H](C(=O)Nc4nc(C(F)(F)F)ccc4C)N(C(=O)C2)[C@@H]1C3 [Compound T-138] | < 1000
15 | Cc1ncc(-c2cc3c4c(c2)c(C#N)nn4CC(=O)N2[C@H](C(=O)Nc4nc(C(F)(F)F)ccc4C)C[C@@]4(CNC(=O)CCCC=CC3)C[C@@H]24)cn1 [Compound T-133] | < 1000
16 | CC(=O)c1nn(CC(=O)N2[C@H]3C[C@@]4(CNC(=O)C(F)(F)CCCCOCc5ccc(Br)nc5NC3=O)C[C@@H]24)c2cnc(-c3cnc(C)nc3)cc12 [Compound T-119] | < 1000
17 | CC(=O)c1nn(CC(=O)N2[C@H]3C[C@]4(C[C@@H]24)CN(C)CCCCCCCc2ccc(Br)nc2NC3=O)c2c(C)cc(-c3cnc(C)nc3)cc12 [Compound T-71] | < 1000
18 | CC(=O)c1nn(CC(=O)N2[C@H]3C[C@@]4(CNC(=O)C(F)(F)CCCOCc5ccc(Br)nc5NC3=O)C[C@@H]24)c2ccc(-c3cnc(C)nc3)cc12 [Compound T-157] | < 1000
19 | CC(=O)c1nn(CC(=O)N2[C@H]3C[C@@]4(COCC=CCOCc5ccc(Br)nc5NC3=O)C[C@@H]24)c2ccc(-c3cnc(C)nc3)cc12 [Compound T-3, (41R,43S,45S)-42-(2-(3-acetyl-5-(2-methylpyrimidin-5-yl)-1H-indazol-1-yl)acetyl)-16-bromo-6,11-dioxa-42,2-diaza-1(2,3)-pyridina-4(3,5)-bicyclo[3.1.0]hexanacyclododecaphan-8-en-3-one] | < 1000
20 | CC(=O)c1nn2c3c(cc(-c4cnc(C)nc4)cc13)CCCCCC(=O)N(C)C[C@@]13C[C@@H](C(=O)Nc4nc(C(F)(F)F)ccc4C)N(C(=O)C2)[C@@H]1C3 [Compound T-125] | < 1000
21 | CC(=O)c1nn(CC(=O)N2[C@H]3C[C@]4(C[C@@H]24)CN2CCN(CCCOCc4ccc(Br)nc4NC3=O)CC2)c2ccc(-c3cnc(C)nc3)cc12 [Compound T-123] | 1000 to 10000

Row | Structure (SMILES) | IC50 [nM]
22 | CC(=O)c1cc2n(n1)CC(=O)N1[C@@H](C[C@@]3(C)C[C@@H]13)C(=O)Nc1nc(Br)ccc1COC/C=C/CCNC2=O [Compound T-14, (18aS,19aR,20aR,E)-2-acetyl-15-bromo-19a-methyl-6,7,12,17,18a,19,19a,20,20a,23-decahydro-4H-cyclopropa[4,5]pyrrolo[2,1-g]pyrazolo[1,5-k]pyrido[3,2-c][1,5,8,11,14]oxatetraazacyclononadecine-4,18,22(5H,10H)-trione] | > 10000
23 | CC(=O)c1nn(CC(=O)N2C[C@@]3(F)COCCCCCCCc4ccc(Br)nc4NC(=O)[C@@H]2C3)c2ccc(-c3cnc(C)nc3)cc12 [Compound T-106] | < 1000
24 | CC(=O)c1nn(CC(=O)N2[C@H]3C[C@@]4(COCCCCCCc5ccc(Br)nc5NC3=O)C[C@@H]24)c2ccc(-c3cnc(C)nc3)cc12 [Compound T-39] | < 1000
25 | CC(=O)c1nn(CC(=O)N2[C@H]3C[C@@]4(COCCCCCCc5ccc(Br)nc5NC3=O)C[C@@H]24)c2cnc(-c3cnc(C)nc3)cc12 [Compound T-42] | < 1000
26 | CC(=O)c1nn2c3c(cc(-c4cnc(C)nc4)cc13)C(O)C(O)CCCCCN(C)C[C@@]13C[C@@H](C(=O)Nc4nc(Br)ccc4C)N(C(=O)C2)[C@@H]1C3 (some centres unmarked) [Compound T-121] | < 1000
27 | CC(=O)c1nn(CC(=O)N2[C@H]3C[C@]4(C[C@@H]24)CN(C)CCCCC=CCc2ccc(Br)nc2NC3=O)c2cnc(-c3cnc(C)nc3)cc12 [Compound T-56] | < 1000
28 | CC(=O)c1nn(CC(=O)N2[C@H]3C[C@@]4(CNC(=O)C(C)(C)C=CCOCc5ccc(Br)nc5NC3=O)C[C@@H]24)c2cnc(-c3cnc(C)nc3)cc12 [Compound T-112] | < 1000
29 | CC(=O)c1nn2c3c(cc(-c4cnc(C)nc4)cc13)CCCCCCC(=O)NC[C@@]13C[C@@H](C(=O)N[C@H](C)COC(F)(F)F)N(C(=O)C2)[C@@H]1C3 [Compound T-207] | < 1000
30 | CCCCNC(=O)[C@@H]1C[C@]23CNC(=O)CCCCCCc4cc(-c5cnc(C)nc5)cc5c(C(C)=O)nn(c45)CC(=O)N1[C@@H]2C3 [Compound T-199] | < 1000
31 | CC(=O)c1nn2c3c(cc(-c4cnc(C)nc4)cc13)CC=CCCCC(=O)NC[C@@]13C[C@@H](C(=O)Nc4nc(Br)ccc4C4CC4)N(C(=O)C2)[C@@H]1C3 [Compound T-211] | < 1000
32 | CC(=O)c1nn(CC(=O)N2C3CC34COCC=CCOCc3ccc(Br)nc3NC(=O)[C@@H]2C4)c2ccc(-c3cnc(C)nc3)cc12 (stereo partly drawn) [Compound T-1, (43S)-44-(2-(3-acetyl-5-(2-methylpyrimidin-5-yl)-1H-indazol-1-yl)acetyl)-16-bromo-6,11-dioxa-44,2-diaza-1(2,3)-pyridina-4(3,1)-bicyclo[3.1.0]hexanacyclododecaphan-8-en-3-one] | < 1000
33 | COCc1ccc(Br)nc1NC(=O)[C@@H]1C[C@]23CNC(=O)CCCCCCc4cc(-c5cnc(C)nc5)cc5c(C(C)=O)nn(c45)CC(=O)N1[C@@H]2C3 [Compound T-241] | < 1000
34 | Cc1ncc(-c2cc3c4c(c2)c(C(N)=O)nn4CC(=O)N2[C@H](C(=O)Nc4nc(Br)ccc4C)C[C@@]4(CNC(=O)CCCC=CC3)C[C@@H]24)cn1 [Compound T-152] | < 1000
35 | CC(=O)c1nn2c3cc(c(-c4cnc(C)nc4)cc13)OCCC/C=C\COC[C@@]13C[C@@H](C(=O)Nc4nc(Br)ccc4C)N(C(=O)C2)[C@@H]1C3 [Compound T-80] | < 1000
36 | CC(=O)c1nn2c3c(cc(-c4cnc(C)nc4)cc13)CCCCCCC(=O)N(C)C[C@@]13C[C@@H](C(=O)Nc4nc(C(F)(F)F)ccc4C)N(C(=O)C2)[C@@H]1C3 [Compound T-93] | < 1000
37 | CC(=O)c1nn(CC(=O)N2[C@H]3C[C@@]4(C=CCCCCCN(C)Cc5ccc(Br)nc5NC3=O)C[C@@H]24)c2c(CF)cc(-c3cnc(C)nc3)cc12 [Compound T-59] | < 1000
38 | CC(=O)c1nn(CC(=O)N2[C@H]3C[C@@]4(CNC(=O)C(C)(C)C=CCOCc5ccc(Br)nc5NC3=O)C[C@@H]24)c2ccc(-c3cnc(C)nc3)cc12 [Compound T-131] | < 1000
39 | COc1cc(NC(=O)[C@@H]2C[C@]34CNC(=O)CCCCCCc5cc(-c6cnc(C)nc6)cc6c(C(C)=O)nn(c56)CC(=O)N2[C@@H]3C4)nc(Br)c1F [Compound T-228] | < 1000
40 | CC(=O)c1nn2c3c(cc(-c4cnc(C)nc4)cc13)CCCCCCCCOC[C@@]13C[C@@H](C(=O)Nc4nc(Br)ccc4C)N(C(=O)C2)[C@@H]1C3 [Compound T-23, (41R,43S,45S)-13-acetyl-N-(6-bromo-3-methylpyridin-2-yl)-15-(2-methylpyrimidin-5-yl)-3-oxo-11H-6-oxa-42-aza-1(1,7)-indazola-4(2,5)-bicyclo[3.1.0]hexanacyclotetradecaphane-43-carboxamide] | < 1000
41 | CC(=O)c1nn(CC(=O)N2[C@H]3C[C@@]4(COC/C=C/COCc5ccc(Br)nc5NC3=O)C[C@@H]24)c2cnc(-c3cnc(C)nc3)cc12 [Compound T-44] | < 1000
